Structures are written as SMILES. “Also recorded” adds a separate entry of the source. Read-outs that look alike come from different tables or passages of the source.

The conditions of series [1]: comparison polymorphs, cited from earlier work.
A short description of series [2]: Powder dissolution study in water. To be noted: 500 mg in 500 mL water, 50 rpm, up to 300 min. It counts as physicochemical. As for the experimental part:
Samples (2 mL) were collected at 1 min, 2 min, 5 min, 10 min, 15 min, 20 min, 30 min, 40 min, 50 min, 60 min, 80 min, 100 min, 120 min, 150 min, 180 min, 210 min, 240 min, 270 min, and 300 min. Water (2 mL) was added each time when a sample was taken. The XRPD of the solid samples were measured.

The conditions of series [3]: comparison polymorphs, cited from earlier work. This is another data set of the same source.
Series [4] can be described thus: Study of polymorphic forms of Compound A stirred in water (XRPD). The format is physicochemical. To be noted: 300 rpm. On the procedure: 600 mg Compound A was placed in a 100 mL container. After 40 mL water was added, the container was stirred at 300 rpm at 20° C. After 12 hours, a sample was taken from the container and an XRPD was measured. […] The XRPD, TG, and DSC of Form E are shown in FIGS. 12, 13, and 14, respectively.
600 mg Compound A was placed in a 100 mL container. After 40 mL water was added, the container was stirred at 300 rpm at 25° C. After 48 hours, a sample was taken from the container and an XRPD was measured. […] A sample taken after 168 hours at 25° C. still had the same XRPD as the Form E polymorph described in Chinese Patent No. 1871003.
600 mg Compound A was placed in a 100 mL container. After 40 mL water was added, the container was stirred at 300 rpm at 15° C. After 10 hours, a sample was taken from the container and an XRPD was measured.

For series [5] the following is noted: cited from earlier work; for Hygroscopicity: Wt. increase: 5~95% RH.
For series [6] the following is noted: cited from earlier work.
For series [7] the following is noted: in acetone; comparison polymorphs; listed as B; cited from earlier work.
The nature of series [8]: Hygroscopicity, dynamic vapor sorption (DVS). To be noted: 25° C., 1~95% RH. The format is physicochemical. As for the experimental part: About 3 mg Form DH prepared in Example 1 was subject to dynamic vapor sorption analysis with a VTI-SA+ type dynamic vapor sorption analyzer (US TA Instruments Company). The temperature was 25° C., and the range of the relative humidity was 1-95%.
About 3 mg Form α prepared in Example 4 was subject to Dynamic Vapor Sorption analysis with a VTI-SA+ type dynamic vapor sorption analyzer (US TA Instruments Company). The temperature was 25° C., and the range of the relative humidity was 1-95%.

Series [9] is described as follows: Stability of polymorphs in solution (suspension in solvent, XRPD of the solid). The format is physicochemical. To be noted: for Stability in solution: polymorph converted (Cv.) to: suspension kept at 20° C. for 24 hours; for Stability in solution: polymorphic form: ethanol, acetonitrile, tetrahydrofuran, ethyl acetate, and dioxane, 20° C. for 24 hours. As for the experimental part: 15 mg of the polymorph obtained in Example 1 was placed in a 2 mL container. 1 mL of the each of the following solvents was added: methanol, ethanol, acetone, acetonitrile, tetrahydrofuran, nitromethane, ethyl acetate, or dioxane. The container was sonicated to dissolve Compound A. The resulting supersaturated suspension was kept at 20° C. for 24 hours. After centrifugation, the supernatant was removed, and the solid was dried at 45° C. for 2 hours. The XRPD of the solid was measured.
15 mg of the polymorph obtained in Example 4 was placed in a 2 mL container. 1 mL of the each of the following solvents was added: methanol, ethanol, acetone, acetonitrile, tetrahydrofuran, ethyl acetate, dioxane, or water. The container was sonicated to dissolve Compound A. The resulting supersaturated suspension was kept at 20° C. for 24 hours. After centrifugation, the supernatant was removed, and the solid was dried at 45° C. for 2 hours. The XRPD of the solid was measured.

The nature of series [10]: Thermal stability (polymorph conversion on heating, XRPD). The format is physicochemical. As for the experimental part: In one embodiment, Form DH converts to a different polymorph at an elevated temperature (e.g., 170° C. or higher). In one embodiment, when heated to 170° C., Form DH converts to a polymorph characterized by an XRPD pattern substantially similar to that set forth in FIG. 10 (“Form F”). In one embodiment, when heated to 190° C., Form DH converts to a polymorph characterized by an XRPD pattern substantially similar to that set forth in FIG. 11 (“Form A”).
In one embodiment, Form α converts to a different polymorph at an elevated temperature (e.g., 230° C. or higher). In one embodiment, when heated to 230° C., Form α converts to a polymorph characterized by an XRPD pattern substantially similar to that set forth in FIG. 26 (“Form A”).

Series [11] in a line: Accelerated stability studies (storage, XRPD).
Protocol: 10 mg of Form DH or Form α of the present application was each put in a testing tube. The testing tubes were placed separately in sealed storage bags. The bags were stored under 40° C./75% RH or RT/P2O5. Samples of the polymorph were collected at day 1, day 3, day 5, day 7, day 14, day 21, and day 28 for XRPD measurement.
Series [12] can be described thus: Crystallinity of polymorphs. The format is physicochemical. To be noted: polymorphs of the application. As for the experimental part:
XRPD patterns of the polymorphs obtained in the Examples were collected on a D/MAX 2500 diffractometer using the following setting: Cu Kα radiation λ 1.5418 Å, 40 kV, 200 mA, […] 2-40° at 8°/min.

Regarding `Nc1cccc2c1CN(C1CCC(=O)NC1=O)C2=O` (centres unmarked) [Compound A, 3-(4-amino-1-oxoisoindolin-2-yl)piperidine-2,6-dione], in series [1], the Crystallinity result is “Good”. For the same compound, in [2], the “Dissolution: crystal conversion (Cv.) during powder dissolution” value (“Dissolution: crystal conversion” below) is recorded as “Form E”. The Thermal stability result in [3] (temperature not given) is reported as “No Cv”. Moreover, the “Polymorphic form by XRPD after stirring in water” value is “Form DH” in [4] (15° C., 34 hours); “Form E” in [4] (15° C., after 10 hours); “Form DH” in series [4] (20° C., 108 hours); “Form E” in [4] (20° C., after 12 hours); “Form E” in series [4] (25° C., after 48 hours); “Form E” in series [4] (25° C., after 168 hours). Also, the “Hygroscopicity: Wt. increase” value in [5] is listed as “No significant”.

Regarding `Nc1cccc2c1CN(C1CCC(=O)NC1=O)C2=O` (centres unmarked) [Form B, 3-(4-amino-1-oxoisoindolin-2-yl)piperidine-2,6-dione], the Accelerated stability result in series [6] (85 days at 40° C./93% RH) and in [6] (85 days at RT/0% RH) was “Stable for 85” in each case. Also, the Crystallinity entry in [1] (listed as B) is on record as “Good”. Moreover, the “Stability in solution: polymorph converted (Cv.) to” value (shortened to “Stability in solution … (Cv.) to”) in [7] is on record as “THF, to Form C”. Further, the “Thermal stability: polymorph converted (Cv.) to” value (“Thermal stability … (Cv.) to” below) in series [3] (at 175° C.) was “Cv. to Form A at”. The “Hygroscopicity: Wt. increase” value in [5] was “No significant”.

For `Nc1cccc2c1CN(C1CCC(=O)NC1=O)C2=O` (centres unmarked) [Form C, 3-(4-amino-1-oxoisoindolin-2-yl)piperidine-2,6-dione], the Crystallinity result in series [1] (listed as C) was “Good”. For the same compound, in series [5] (at 95% RH), the “Hygroscopicity: Wt. loss” value is “by 6.03% at”.

Turning to `Nc1cccc2c1CN(C1CCC(=O)NC1=O)C2=O` (centres unmarked) [Form D, 3-(4-amino-1-oxoisoindolin-2-yl)piperidine-2,6-dione], in series [1] (listed as D), the Crystallinity entry is on record as “Good”.

Regarding `Nc1cccc2c1CN(C1CCC(=O)NC1=O)C2=O` (centres unmarked) [Form DH, 3-(4-amino-1-oxoisoindolin-2-yl)piperidine-2,6-dione], the “Dissolution: crystal conversion” value in [2] is recorded as “did not change”. Besides, the results for the “Hygroscopicity: Wt. increase” value in [8] and in series [8] (listed as DH) were “No weight increase” and “No significant”, respectively. The “Hygroscopicity: crystal form after DVS” value in series [8] is reported as “remained unchanged”; in series [8] (listed as DH), “No change”. Further, the “Stability in solution … (Cv.) to” value in series [9] (in acetone) is “Form C”; in [9] (in acetone, listed as DH), “Form C in”. Further, the “Stability in solution: polymorphic form” value in [9] (in water, methanol) is given as “maintained its polymorphic form as Form DH; also recorded: stable”. Besides, the “Thermal stability … (Cv.) to” value in series [10] (heated to 170° C.) was “Form F”; in series [10] (heated to 190° C.), “Form A”. The “Accelerated stability (stable, or polymorph converted to)” value was “stable” in series [11] (28 days at 40° C./75% RH) and “Stable” in series [11] (28 days at 40° C./75% RH, listed as DH). Also, the Crystallinity result in series [12] was “Good”.

`Nc1cccc2c1CN(C1CCC(=O)NC1=O)C2=O` (centres unmarked) [Form E, 3-(4-amino-1-oxoisoindolin-2-yl)piperidine-2,6-dione]: in [1] (listed as E), the Crystallinity entry is “Good”.

In the case of `Nc1cccc2c1CN(C1CCC(=O)NC1=O)C2=O` (centres unmarked) [Form H, 3-(4-amino-1-oxoisoindolin-2-yl)piperidine-2,6-dione], in series [1], the Crystallinity entry was “relatively poor”.

Take `Nc1cccc2c1CN(C1CCC(=O)NC1=O)C2=O` (stereo not drawn) [Form α, 3-(4-amino-1-oxoisoindolin-2-yl)piperidine-2,6-dione]: the “Dissolution: crystal conversion” value in [2] is “Form E”. In addition, the “Hygroscopicity: crystal form after DVS” value in [8] is “remained unchanged”; in [8] (listed as α) it was “No change”. The “Hygroscopicity: Wt. increase” value in series [8] (listed as α) is “No significant”. Also, in series [9] (in methanol, acetone), the “Stability in solution: polymorphic form” value is reported as “stable; also recorded: maintained its polymorphic form as Form α”. In addition, the “Stability in solution … (Cv.) to” value in series [9] (in water) is on record as “Form DH”. Moreover, the “Thermal stability … (Cv.) to” value in series [10] (heated to 230° C.) is “Form A”. Besides, the “Accelerated stability (stable, or polymorph converted to)” value in [11] (28 days at RT/P2O5) was “did not change”; in series [11] (28 days at RT/P2O5, listed as α) it was “Stable after”. Moreover, in series [12], the Crystallinity result is “Good”.

Values taken from patent US20180282297A1, “POLYMORPHS OF 3-(4-AMINO-1-OXOISOINDOLIN-2-YL)PIPERIDINE-2,6-DIONE” (Shenzhen Jingtai Technology Co., Ltd., priority 2017, published 2018).
